In patent US20110268789A1, “USE OF PITUITARY ADENYLATE CYCLASE-ACTIVATING POLYPEPTIDE (PACAP) AND PACAP ANALOGS AS ADJUNCTIVE TREATMENTS WITH ANTICANCER AGENTS” (priority 2008, published 2011):
Where two headings read alike, the source gives them in different places.

How the values were obtained:
[1] = test system: human erythroleukemia cells; assay: Thalidomide-induced apoptotic cell death of erythroleukemia cells; type: cell-based
Method: The human myeloid leukemia cells were cultured in RPMI 1640 medium supplemented with 10% non-inactivated fetal bovine serum. The effects of PACAP38, [D-Ser^2]PACAP38 and VIP on apoptotic cell death was assessed by the quantitative determination of cytoplasmic histone-associated DNA-fragmentation (mono- and oligonucleosomes) after exposure to thalidomide for 48 hours. Each value represents the mean plus/minus the standard deviation of four determinations. **p<0.01 and *p<0.05 compared to the thalidomide-treated (control) cells.

[2] = test system: Jurkat human T-lymphocyte leukemia cells; assay: Etoposide-induced apoptotic cell death of leukemia cells; type: cell-based
Method: The Jurkat human T-lymphocyte leukemia cells were cultured in RPMI 1640 medium supplemented with 10% non-inactivated fetal bovine serum. The effects of PACAP27 and PACAP38 on apoptotic cell death was assessed by the quantitative determination of cytoplasmic histone-associated DNA-fragmentation (mono- and oligonucleosomes) after exposure to etoposide for 48 hours. Each value represents the mean plus/minus the standard deviation of three determinations. **p<0.01 and *p<0.05 compared to the etoposide-treated (control) cells.

[3] = test system: Four-vessel occlusion in the rat; settings: cited from earlier work
[4] = test system: L-132 human lung cells; assay: Bleomycin-induced apoptotic cell death of human pulmonary epithelial cells; type: cell-based; settings: L-132 cells, peptide added to the medium, FIG. 12
Method: The L-132 human lung cells were cultured in Eagle's Minimum Essential Medium supplemented with 10% fetal bovine serum. […] Each value represents the mean plus/minus the standard deviation of four determinations in three replicate experiments. **p<0.01 and *p<0.05 compared to the bleomycin-treated (control) cells.
At the highest dose tested (10^−6 M), all three peptides reduced the apoptotic cell death of these epithelial cells by more than 60%. […] Therefore, pre- and/or post-treatment of subjects undergoing bleomycin-based cancer chemotherapy with therapeutic doses of PACAP38 and/or PACAP analogs should result in a higher maximal tolerable dose of bleomycin, and an increased frequency of partial clinical responses and/or an increased number of complete remissions.

[5] = test system: HK-2 human kidney cells; assay: Cisplatin-induced apoptotic cell death of human renal proximal tubule epithelial cells (histone-associated DNA fragmentation); type: cell-based; settings: HK-2 cells
Method: The HK-2 human kidney cells were cultured in Keratinocyte-Serum Free Medium supplemented with recombinant epidermal growth factor and bovine pituitary extract. The dose-dependent inhibitory effect of PACAP38 on apoptotic cell death was assessed by the quantitative determination of cytoplasmic histone-associated DNA-fragmentation (mono- and oligonucleosomes) after exposure to cisplatin for 24 hours. Each value represents the mean plus/minus the standard error of four determinations in three replicate experiments. **p<0.01 compared to the cisplatin-treated (control) cells.
The HK-2 human kidney cells were cultured in Keratinocyte-Serum Free Medium supplemented with recombinant epidermal growth factor and bovine pituitary extract. The dose-dependent inhibitory effect of PACAP38 on apoptotic cell death was assessed by the quantitative determination of cytoplasmic histone-associated DNA-fragmentation (mono- and oligonucleosomes) after exposure to cisplatin for 24 hours. Each value represents the mean plus/minus the standard deviation of four determinations in three different experiments. **p<0.01 and *p<0.05 compared to the cisplatin-treated (control) cells.

[6] = test system: light-chain immunoglobulin-secreting human myeloma cells; assay: Doxorubicin-induced apoptotic cell death of myeloma cells; type: cell-based
Method: The light-chain immunoglobulin-secreting human myeloma cells were cultured in RPMI 1640 medium supplemented with 10% non-inactivated fetal bovine serum and 0.05 mM 2-mercaptoethanol. The effects of PACAP38, and [Ala^16,17,D-Lys^38]PACAP38 on apoptotic cell death was assessed by the quantitative determination of cytoplasmic histone-associated DNA-fragmentation (mono- and oligonucleosomes) after exposure to doxorubicin for 48 hours. Each value represents the mean plus/minus the standard deviation of three determinations. **p<0.01 and *p<0.05 compared to the doxorubicin-treated (control) cells.
At the lowest dose tested (10^−8 M), both peptides reduced the doxorubicin-induced apoptotic cell death of these malignant plasma cells.

[7] = test system: Middle cerebral artery occlusion (MCAO) in the rat; settings: cited from earlier work; for reduction of the infarct volume: 48 hours after start
[8] = test system: light-chain immunoglobulin-secreting human myeloma cells; assay: Carmustine-induced apoptotic cell death of myeloma cells; type: cell-based
Method: The light-chain immunoglobulin-secreting human myeloma cells were cultured in RPMI 1640 medium supplemented with 10% non-inactivated fetal bovine serum and 0.05 mM 2-mercaptoethanol. The effects of PACAP38, and [Ala^22]PACAP38 on apoptotic cell death was assessed by the quantitative determination of cytoplasmic histone-associated DNA-fragmentation (mono- and oligonucleosomes) after exposure to carmustine for 48 hours. Each value represents the mean plus/minus the standard deviation of three determinations. **p<0.01 and *p<0.05 compared to the carmustine-treated (control) cells.

[9] = test system: HK-2 human kidney cells; assay: Cell-based adhesion assay: binding of cisplatin-treated renal cells to extracellular matrix components; settings: HK-2 cells, 50 μM cisplatin, FIG. 5
Excerpt: The wells of a 96-well plate were coated with […] fibronectin, collagen I or collagen IV. […] PACAP38 partially reversed the decrease in binding to fibronectin and collagen IV in the cells exposed to cisplatin. Each value represents the mean plus/minus the standard error of four determinations. **p<0.01 compared to the corresponding cisplatin-treated (control) cells.

[10] = test system: HK-2 human kidney cells; assay: Doxorubicin-induced apoptotic cell death of human renal proximal tubule epithelial cells; type: cell-based; settings: HK-2 cells, peptide added to the medium, FIG. 11
Method: The HK-2 human kidney cells were cultured in Keratinocyte-Serum Free Medium supplemented with recombinant epidermal growth factor and bovine pituitary extract. […] Each value represents the mean plus/minus the standard deviation of four determinations in three replicate experiments. **p<0.01 and *p<0.05 compared to the doxorubicin-treated (control) cells.
At the highest dose tested (10^−6 M), all three peptides reduced the apoptotic cell death of these epithelial cells by more than 60%.

With PACAP38 the “lowest dose with significant enhancement of thalidomide-induced apoptotic cell death” value [1] was 10^−8 M, the “effect on thalidomide-induced apoptotic cell death” value ([1]; thalidomide 48 hours, FIG. 20) was “dose-dependent enhancement” and the “reduction in etoposide-induced apoptotic cell death” value ([2]; Jurkat cells, etoposide 48 hours, FIG. 15) was “small reduction”. For the same substance, the “significance of the reduction of etoposide-induced apoptotic cell death” value ([2]; Jurkat cells, highest dose tested 10^−6 M) was “only significant at the highest dose”, the “potency as cytoprotectant of kidney and lung epithelial cells relative to protection of T-lymphocyte leukemia cells against etoposide” value ([2]; versus cisplatin (FIG. 3), doxorubicin (FIG. 11), bleomycin (FIG. 12)) was “about 100 fold” and the “reduction in the number of CA1 pyramidal cells at day 7 post-occlusion” value ([3]; 16 pmol/hr or 160 pmol/hr i.v. for 6 days beginning 24 hours after occlusion) was “significantly reversed”. The “side-effects during 6 days continuous infusion” value ([3]; 16 pmol/hr or 160 pmol/hr i.v.) was “no obvious side-effects”, the “reduction in bleomycin-induced apoptotic cell death” value [4] was “significant dose-dependent reduction” and the “reduction in cisplatin-induced apoptotic cell death” value ([5]; cisplatin 24 hours, peptide added to the medium, FIG. 3) was “significant dose-dependent reduction”. The “relative effectiveness as protectants against cisplatin-induced apoptotic cell death” value ([5]; comparable concentrations, FIG. 4) was “similarly effective”, the “prevention of apoptotic cell death caused by cisplatin” value ([5]; highest dose tested) was “almost completely prevented” and the “effect on doxorubicin-induced apoptotic cell death (dose-response)” value ([6]; doxorubicin 48 hours, FIG. 16) was “biphasic dose-response effect”. For the same substance, the “effect on doxorubicin-induced apoptotic cell death” value ([6]; highest dose tested (10^−6 M)) was “significantly enhanced”, the “effect on doxorubicin-induced apoptotic cell death” value ([6]; lowest dose tested (10^−8 M)) was “reduced” and the “reduction of the infarct volume” value ([7]; 160 pmol/hr i.v. infusion beginning 4 hours after start of MCAO) was “approximately 51%”. For the same substance, the “reduction of the infarct volume” value ([7]; 160 pmol/hr i.v. infusion beginning 8 hours after start of MCAO) was about 22%, the “reduction of the infarct volume” value ([7]; 160 pmol/hr i.v. infusion beginning 12 hours after start of MCAO) was about 12% and the “effect of continuous intravenous infusion on plasma glucose levels, blood gases, blood pressure” value ([7]; 160 pmol/hr i.v.) was “did not appear to alter plasma glucose levels, blood gases or blood pressure”. The “relative potency as enhancer of carmustine-induced apoptotic cell death” value [8] was “more potent than [Ala^22]PACAP38”, the “effect on carmustine-induced apoptotic cell death” value ([8]; carmustine 48 hours, FIG. 17) was “enhancement” and the “effect on carmustine-induced apoptotic cell death” value ([8]; highest dose tested (10^−6 M)) was “significantly enhanced”. For the same substance, the “reversal of inhibitory effect of cisplatin on binding to fibronectin-based or collagen IV-based matrix” value [9] was “significantly reversed” and the “reduction in doxorubicin-induced apoptotic cell death” value [10] was “significant dose-dependent reduction”.
